Results reported in patent publication US4320148A, “2-Aminotetralin compounds, pharmaceutical compositions and method of producing central alpha1 agonist activity” (SmithKline Corporation, priority 1980, dated 1982).

System: postjunctional alpha1 receptor (isolated rabbit ear artery segment)
Assay: postjunctional alpha1 agonist activity (EC50), isolated segment of rabbit ear artery
Assay type: cell-based
Settings: isolated rabbit ear artery segment superfused with oxygenated Krebs solution; maximum response of the artery determined with norepinephrine; read-out: EC50 (dose required to produce 50% of the maximum response)
Description: A quantitation of postjunctional alpha1 agonist activity (EC50) is determined for compounds showing activity in the above test. This is accomplished by employing an isolated segment of rabbit ear artery. The segment is mounted in a chamber superfused with oxygenated Krebs solution. The segment is suspended between two tungsten wires, one attached to the chamber, the other to a force-displacement transducer so that smooth muscle tension can be measured directly. Before administration of the test drug, norepinephrine is administered in increasing concentration (10^-8 M to 3×10^-6 M) to determine maximum response of the artery. The dose required to produce 50% of the maximum response is the EC50.

Point of comparison: `COc1ccc(OC)c2c1CCC(N(C)C)C2` (stereo not shown) [SK&F 88,444], EC50 100 nM. Against it:
- COc1ccc(SC)c2c1CC(N)CC2 (stereo not shown) [SK&F 89,748, 1,2,3,4-tetrahydro-8-methoxy-5-(methylthio)-2-naphthalenamine] — 11-fold lower, 9.3 nM
- COc1ccc(SC)c2c1CC(N(C)C)CC2 (stereo not shown) [SK&F 89,900, 1,2,3,4-tetrahydro-8-methoxy-N,N-dimethyl-5-(methylthio)-2-naphthalenamine] — 7.7-fold lower, 13 nM
- COc1ccc(OC)c2c1CCC(N)C2 (stereo not shown) [SK&F 87,696] — within 1.5-fold, 110 nM
